Here are results for 22 compounds from ChEMBL document CHEMBL1156829 (Proc Natl Acad Sci U S A, 2008).

Data set [1] is described as follows: NOVARTIS: Cytotoxicity against human hepatocellular carcinoma cell line (Huh7). The data set is classed as toxicity, cell-based, Huh-7. The settings on record: Huh7 cells (hepatocellular carcinoma cell line).
The test system of data set [2] is Plasmodium falciparum. As to the kind of experiment: NOVARTIS: Inhibition of Plasmodium falciparum W2 (drug-resistant) proliferation in erythrocyte-based infection assay. The settings on record: Plasmodium falciparum, W2; read-out: EC50. The format is functional, organism-based.
For data set [3], the system named is Plasmodium falciparum. As to the kind of experiment: NOVARTIS: Inhibition of Plasmodium falciparum 3D7 (drug-susceptible) proliferation in erythrocyte-based infection assay. The settings on record: Plasmodium falciparum, 3D7. The format is functional, organism-based.

For orientation: CC50 means the concentration that lowers cell viability or growth by half. Read a low CC50 as harm at low concentration. The EC50 is the midpoint of the concentration-response curve. Compound `COc1ccc(CCN2CCC(NCc3cccc(N(C)C)c3)CC2)cc1` gave a 50% cytotoxic concentration (CC50) in data set [1] of over 10 µM. The figures for the EC50 with Plasmodium falciparum [2] and with Plasmodium falciparum [3] were 1.06 µM and 0.806 µM, respectively.
For `C=CCC1(Nc2ccccc2)CCCCC1`, the CC50 in data set [1] is over 10 µM. Moreover, the concentration for a half-maximal effect (EC50) in the data set with Plasmodium falciparum [2] is over 1.05 µM; in the data set on Plasmodium falciparum [3] it was over 1.25 µM.
The matching figures for `O=C(Nc1nccs1)c1cc(-c2cccnc2)nc2ccc(Br)cc12`: over 100 µM, over 10.4 µM and 1.08 µM.
`c1ccc2c(NCCc3c[nH]cn3)c3ccccc3nc2c1`: the CC50 in data set [1] was 23.3 µM. Also, the half-maximal effective concentration (EC50) was determined as 2.46 µM in the data set with Plasmodium falciparum [2] and 1.73 µM with Plasmodium falciparum [3].
For `CC(=NO)c1ccc2c(c1)C(C)(C)CCC2(C)C` the same measures were 37.1 µM, 3.9 µM and 3.51 µM.
Regarding `CCCCCN1/C(=C\C=C\c2n(CCCCC)c3cc(Cl)c(Cl)cc3[n+]2CC)N(CC)c2cc(Cl)c(Cl)cc21`, in data set [1], the 50% cytotoxic concentration (CC50) was over 10 µM. The results for the concentration for a half-maximal effect (EC50) in the data set on Plasmodium falciparum [2] and in the data set with Plasmodium falciparum [3] were over 1.06 µM and over 1.3 µM, respectively.
Take `CCC(c1nc2ccccc2c(=O)n1-c1cccc(Cl)c1)N(CCc1ccccc1)C(=O)c1ccc(F)cc1` (stereo unspecified): the CC50 in data set [1] was 0.656 µM. For the same compound, the EC50 stood at 0.069 µM with Plasmodium falciparum [2] and 0.267 µM in the data set on Plasmodium falciparum [3].
For `O=C1C(Cc2ccccc2)N=C2c3ccccc3N=C(SCc3ccc(Cl)cc3)N12` (stereo unspecified) the same measures were over 10 µM, over 1.05 µM and over 1.25 µM.
As to `COc1ccccc1Cn1c(SCc2ccc(Cl)cc2)nc2ccc(Br)cc2c1=O`, the cytotoxic concentration (CC50) in data set [1] was over 10 µM. Further, the EC50 with Plasmodium falciparum [2] was over 1.05 µM; in the data set with Plasmodium falciparum [3], over 1.16 µM.
The matching figures for `O=C(Nc1ccc(F)c(F)c1)c1ccccc1[N+](=O)[O-]`: over 10 µM, 1.06 µM and over 0.903 µM.
For `Cc1ccc(-c2nc3cc(NC(=O)c4ccc(Cl)cc4Cl)ccc3o2)cc1` the same measures were over 10 µM, over 1.05 µM and over 0.864 µM.
The matching figures for `COc1cc(NC(=O)/C=C/c2ccccc2Cl)cc(OC)c1OC`: over 10 µM, 1.06 µM and 0.862 µM.
`CCCCCc1ccc(-c2ccc(/C(C=[N+](C)C)=C\N(C)C)cc2)cc1` came in with a CC50 in data set [1] of over 10 µM. For the same compound, the results for the EC50 in the data set on Plasmodium falciparum [2] and in the data set with Plasmodium falciparum [3] were 1.05 µM and 0.606 µM, respectively.
For `CC(=O)Nc1ccccc1-c1nnn(CC(N)=O)n1` the same measures were over 100 µM, over 10.4 µM and over 10.5 µM.
In data set [1], `Cc1c2ccccc2c(-c2ccccc2)c2ccccc12` showed a CC50 of 6 µM. The concentration giving a half-maximal response (EC50) in the data set on Plasmodium falciparum [2] amounted to 0.626 µM; with Plasmodium falciparum [3], 1.23 µM.
In the case of `COC(=O)c1c(-c2c(Cl)cccc2Cl)noc1C=CNc1ccc(Cl)cc1`, the CC50 in data set [1] is over 100 µM. The 50% effective concentration (EC50) was 10.5 µM in the data set with Plasmodium falciparum [2] and over 1.79 µM with Plasmodium falciparum [3].
The matching figures for `COc1ccccc1-n1c(/C=C/c2cc(Br)ccc2O)nc2ccccc2c1=O`: over 10 µM, over 1.05 µM and over 1.25 µM.
Turning to `COc1cc2nc(C3CCC3)n(NC(=O)c3cccc(F)c3)c(=O)c2cc1OC`, the 50% cytotoxic concentration (CC50) in data set [1] was over 10 µM. The EC50 was over 1.05 µM with Plasmodium falciparum [2] and over 1.25 µM with Plasmodium falciparum [3].
In turn, `Cc1ccc2nc(-c3ccccc3)cc(C(=O)Nc3ccc(Cl)cc3)c2c1` yielded a CC50 in data set [1] of over 10 µM. Besides, the concentration for a half-maximal effect (EC50) in the data set with Plasmodium falciparum [2] was 1.04 µM; in the data set on Plasmodium falciparum [3], over 1.61 µM.
For `C=CCNC(=O)c1ccc2c(c1)N=C(/C=C/c1ccccc1)N(CCc1cccc(OC)c1)C2` the same measures were over 10 µM, 1.04 µM and 1.34 µM.
Compound `Cc1cccc(NC(=O)Nc2cccnc2)c1NC(=O)Nc1cccnc1` displayed a 50% cytotoxic concentration (CC50) in data set [1] of over 10 µM. Further, the EC50 with Plasmodium falciparum [2] was over 1.05 µM; with Plasmodium falciparum [3] it was over 1.25 µM.
For `CC(C)(C)C(/C=C/c1ccc(Cl)cc1Cl)n1nnnc1C1(Nc2ccc(Cl)cc2)CCCCC1` (stereo unspecified) the same measures were over 10 µM, over 1.05 µM and over 1.25 µM.
